In US20150166528A1, “Pesticidal methods using substituted 3-pyridyl thiazole compounds and derivatives for combating animal pests” (BASF SE, priority 2012, published 2015):

Assays:
Format in all cases: in vivo
Aphis Craccivora = assay: Cowpea aphid (Aphis craccivora) potted cowpea plant spray test; settings: sprayed potted cowpea plants, population reduction assessed after 24, 72 and 120 hours, read-out: mortality in comparison with untreated controls
Procedure: The active compound was dissolved at the desired concentration in a mixture of 1:1 (vol:vol) distilled water:acetone. The test solution was prepared at the day of use.
Potted cowpea plants colonized with approximately 100-150 aphids of various stages were sprayed after the pest population has been recorded. Population reduction was assessed after 24, 72, and 120 hours.

Megoura viciae = assay: Vetch aphid (Megoura viciae) leaf disk test, contact or systemic; settings: foliar, 120 h, sprayed broad bean leaf disks, adult aphids, 5 days, read-out: mortality in comparison with untreated controls
Procedure: For evaluating control of vetch aphid (Megoura viciae) through contact or systemic means the test unit consisted of 24-well-microtiter plates containing broad bean leaf disks.
The compounds were formulated using a solution containing 75% v/v water and 25% v/v DMSO. Different concentrations of formulated compounds were sprayed onto the leaf disks at 2.5 μl, using a custom built micro atomizer, at two replications.
After application, the leaf disks were air-dried and 5-8 adult aphids were placed on the leaf disks inside the microtiter plate wells. The aphids were then allowed to suck on the treated leaf disks and were incubated at about 23±1° C. and about 50±5% relative humidity for 5 days. Aphid mortality and fecundity were then visually assessed.

Myzus persicae = assay: Green peach aphid (Myzus persicae) artificial diet test, systemic; settings: 72 h, in liquid artificial aphid diet, adult aphids, 3 days, read-out: mortality in comparison with untreated controls
From the text: For evaluating control of green peach aphid (Myzus persicae) through systemic means the test unit consisted of 96-well-microtiter plates containing liquid artificial diet under an artificial membrane.
The compounds were formulated using a solution containing 75% v/v water and 25% v/v DMSO. Different concentrations of formulated compounds were pipetted into the aphid diet, using a custom built pipetter, at two replications.
After application, 5-8 adult aphids were placed on the artificial membrane inside the microtiter plate wells. The aphids were then allowed to suck on the treated aphid diet and were incubated at about 23±1° C. and about 50±5% relative humidity for 3 days. Aphid mortality and fecundity was then visually assessed.

Bemisia Argentifolii = assay: Silverleaf whitefly (Bemisia argentifolii) cotton plant spray test; settings: 72 h, sprayed cotton plants, whitefly adults, 3 days after treatment, read-out: mortality in comparison with untreated controls
From the text: The active compounds were formulated in cyclohexanone as a 10,000 ppm solution supplied in tubes. The tubes were inserted into an automated electrostatic sprayer equipped with an atomizing nozzle and they served as stock solutions for which lower dilutions were made in 50% acetone:50% water (v/v). A nonionic surfactant (Kinetic®) was included in the solution at a volume of 0.01% (v/v).
Cotton plants at the cotyledon stage (one plant per pot) were sprayed by an automated electrostatic plant sprayer equipped with an atomizing spray nozzle. The plants were dried in the sprayer fume hood and then removed from the sprayer. Each pot was placed into a plastic cup and about 10 to 12 whitefly adults (approximately 3-5 days old) were introduced. The insects were collected using an aspirator and a nontoxic Tygon® tubing connected to a barrier pipette tip. The tip, containing the collected insects, were gently inserted into the soil containing the treated plant, allowing insects to crawl out of the tip to reach the foliage for feeding. Cups were covered with a reusable screened lid. Test plants were maintained in a growth room at about 25° C. and about 20-40% relative humidity for 3 days, avoiding direct exposure to fluorescent light (24 hour photoperiod) to prevent trapping of heat inside the cup. Mortality was assessed 3 days after treatment, compared to untreated control plants.

Heliothis virescens = assay: Tobacco budworm (Heliothis virescens) insect diet egg/larval test; settings: 120 h, sprayed onto insect diet with eggs, egg and larval mortality, 5 days, read-out: mortality in comparison with untreated controls
Procedure: For evaluating control of tobacco budworm (Heliothis virescens) the test unit consists of 96-well-microtiter plates containing an insect diet and 15-25 H. virescens eggs.
The compounds were formulated using a solution containing 75% v/v water and 25% v/v DMSO. Different concentrations of formulated compounds were sprayed onto the insect diet at 10 μl, using a custom built micro atomizer, at two replications.
After application, microtiter plates were incubated at about 28±1° C. and about 80±5% relative humidity for 5 days. Egg and larval mortality was then visually assessed.

Row | SMILES | mortality at 100 ppm (Aphis Craccivora) [%] | mortality at 800 ppm (Megoura viciae) [%] | mortality at 800 ppm (Myzus persicae) [%] | mortality at 300 ppm (Bemisia Argentifolii) [%] | mortality at 800 ppm (Heliothis virescens) [%]
1 | CCN(C1=NCCS1)c1sc(-c2cccnc2)nc1Cl [C.3, 4-chloro-N-(4,5-dihydrothiazol-2-yl)-N-ethyl-2-(3-pyridyl)thiazol-5-amine] | ≥ 75 | ≥ 75 | – | – | –
2 | CCN(C1=NCCS1)c1cnc(-c2cccnc2)s1 [C.1, N-(4,5-dihydrothiazol-2-yl)-N-ethyl-2-(3-pyridyl)thiazol-5-amine] | ≥ 75 | ≥ 75 | ≥ 75 | ≥ 75 | –
3 | [O-][S+](c1ncccn1)c1cnc(-c2cccnc2)s1 (centres unmarked) [C.11, 2-(3-Pyridyl)-5-pyrimidin-2-ylsulfinyl-thiazole] | – | – | – | – | ≥ 75
4 | CCN(C1=NCCO1)c1sc(-c2cccnc2)nc1Cl [C.4, N-[4-chloro-2-(3-pyridyl)thiazol-5-yl]-N-ethyl-4,5-dihydrooxazol-2-amine] | ≥ 75 | ≥ 75 | ≥ 75 | ≥ 75 | –
